This is an account of results in patent publication US9408387B2, “Safening 6-amino-2-(substituted phenyl)-5-substituted-4-pyrimidinecarboxylate herbicide injury on cereal crops” (Dow AgroSciences LLC, priority 2009, dated 2016).

Where two headings read alike, the source gives them in different places.

Assay type in all cases: in vivo
The test system of test [1] is durum wheat (Triticum durum L; TRZDU). The test is described as follows: Postemergence herbicidal safening in cereal crops, greenhouse, visual injury: durum wheat. As to conditions: 20-22 d. The protocol:
(§1) Evaluation of Postemergence Herbicidal Safening in Cereal Crops
(§2) Seeds of the desired test plant species were planted in Sun Gro MetroMix® 306 planting mixture, which typically has a pH of 6.0 to 6.8 and an organic matter content of about 30 percent, in plastic pots with a surface area of 103.2 square centimeters (cm^2). When required to ensure good germination and healthy plants, a fungicide treatment and/or other chemical or physical treatment was applied. The plants were grown for 7-36 days (d) in a greenhouse with an approximate 14-hour (h) photoperiod which was maintained at about 18° C. during the day and 17° C. during the night. Nutrients and water were added on a regular basis and supplemental lighting was provided with overhead metal halide 1000-Watt lamps as necessary. The plants were employed for testing when they reached the second or third true leaf stage.
(§3) Treatments consisted of the acids or esters of compounds 1-10 and cloquintocet-mexyl (CQC-M), fenchlorazole-ethyl, mefenpyr-diethyl alone and in combination. Weighed amounts of acid or methyl esters of the compounds of formula (I) were dissolved in a volume of 97:3 v/v acetone/dimethylsulfoxide (DMSO) to obtain concentrated solutions. […] The concentrated solutions of the test compound were diluted with the addition of an aqueous mixture containing acetone, water, isopropyl alcohol, DMSO, Agri-Dex crop oil concentrate, and Triton® X-77 surfactant in a 64.7:26.0:6.7:2.0:0.7:0.01 v/v ratio. Test compounds were diluted to the appropriate application rate with a dilution solution which was prepared by mixing the appropriate volume of 97:3 v/v acetone/DMSO and the appropriate volume of an aqueous mixture containing acetone, water, isopropyl alcohol, DMSO, Agri-Dex crop oil concentrate, and Triton® X-77 surfactant in a 64.7:26.0:6.7:2.0:0.7:0.01 v/v ratio. Compound requirements are based upon a 12 mL application volume at a rate of 187 liters per hectare (L/ha). The concentrated solutions of the safener were prepared following the same procedure. Weighed amounts of safener were dissolved in a volume of 97:3 v/v acetone/DMSO to obtain concentrated safener solutions.
(§4) Spray solutions of the herbicide safener and test compound mixtures were prepared by adding the concentrated solutions to the appropriate amount of dilution solution to form 12 mL spray solution with active ingredients in combinations.
(§5) Formulated compounds were applied to the plant material with an overhead Mandel track sprayer equipped with 8002E nozzles calibrated to deliver 187 L/ha over an application area of 0.503 square meters (m^2) at a spray height of 18 inches (43 centimeters (cm)) above average plant canopy. Control plants were sprayed in the same manner with the solvent blank.
(§6) The treated plants and control plants were placed in a greenhouse as described above and watered by sub-irrigation to prevent wash-off of the test compounds. After 20-22 d, the condition of the test plants as compared with that of the control plants was determined visually and scored on a scale of 0 to 100 percent where 0 corresponds to no injury and 100 corresponds to complete kill.
(§7) Colby's equation was used to determine the herbicidal effects expected from the mixtures (Colby, S. R. Calculation of the synergistic and antagonistic response of herbicide combinations. Weeds 1967, 15, 20-22.).
(§8) The following equation was used to calculate the expected activity of mixtures containing two active ingredients, A and B: Expected=A+B−(A×B/100)
(§9) A=observed efficacy of active ingredient A at the same concentration as used in the mixture.
(§10) B=observed efficacy of active ingredient B at the same concentration as used in the mixture.

Test [2] relates to winter barley (Hordeum vulgare L; HORVW). Kind of test: Postemergence herbicidal safening in cereal crops, greenhouse, visual injury: winter barley. As to conditions: 20-22 d. Here is the method:
as §1, §2, §3, §4, §5, §6, §7, §8, §9, §10

In test [3] the test system is spring wheat (Triticum aestivum L; TRZAS). Kind of test: Postemergence herbicidal safening in cereal crops, greenhouse, visual injury: spring wheat. The following applies: Triticum aestivum, post-emergence, 480 h, read-out: TRZAS Ob (visual injury); for pest or weed control at 70 g/ha: herbicide alone 70 g/ha; for pest or weed control at 35 g/ha: herbicide alone 35 g ae/ha. Here is the method: as §1, §2, §3, §4, §5, §6, §7, §8, §9, §10

The test system of test [4] is purple deadnettle (Lamium purpureum L; LAMPU). Kind of test: Postemergence herbicidal activity, greenhouse, visual injury: purple deadnettle. As to conditions: Lamium purpureum, post-emergence, 480 h, read-out: LAMPU Ob (visual injury); for pest or weed control at 70 g/ha: herbicide alone 70 g/ha. Here is the method:
as §1, §2, §3, §4, §5, §6, §7, §8, §9, §10

The subject of a further test is GALAP. The test is described as follows: Postemergence herbicidal activity, greenhouse, visual injury: GALAP. As to conditions: 20-22 d. The protocol: as §1, §2, §3, §4, §5, §6, §7
(§11) The following equation was used to calculate the expected activity of mixtures containing two active ingredients, A and B: Expected=A+B−(A×B/100) […]

In a further test the test system is AMARE. The test is described as follows: Postemergence herbicidal activity, greenhouse, visual injury: AMARE. The following applies: 20-22 d. The protocol: as §1, §2, §3, §4, §5, §6, §7, §11
The subject of test [5] is spring barley (Hordeum vulgare L; HORVS). Kind of test: Postemergence herbicidal safening in cereal crops, greenhouse, visual injury: spring barley. As to conditions: Hordeum vulgare, post-emergence, 480 h, read-out: HORVS Ob (visual injury); for pest or weed control at 70 g/ha: herbicide alone 70 g/ha; for pest or weed control at 35 g/ha: herbicide alone 35 g ae/ha. The protocol: as §1, §2, §3, §4, §5, §6, §7, §8, §9, §10

For test [6], the system named is winter wheat (Triticum aestivum L; TRZAW). The test is described as follows: Postemergence herbicidal safening in cereal crops, greenhouse, visual injury: winter wheat. As to conditions: 20-22 d. The protocol: as §1, §2, §3, §4, §5, §6, §7, §8, §9, §10
For test [7], the system named is lamb's-quarters (Chenopodium album L; CHEAL). The test is described as follows: Postemergence herbicidal activity, greenhouse, visual injury: lamb's-quarters. As to conditions: 20-22 d. The protocol:
as §1, §2, §3
Spray solutions of the herbicide safener and test compound mixtures were prepared by adding the concentrated solutions to the appropriate amount of dilution solution to form 12 mL spray solution with active ingredients in combinations. […]
The treated plants and control plants were placed in a greenhouse as described above and watered by sub-irrigation to prevent wash-off of the test compounds. After 20-22 d, the condition of the test plants as compared with that of the control plants was determined visually and scored on a scale of 0 to 100 percent where 0 corresponds to no injury and 100 corresponds to complete kill. […]

In test [8] the test system is corn poppy (Papaver rhoeas L; PAPRH). The test is described as follows: Postemergence herbicidal activity, greenhouse, visual injury: corn poppy. As to conditions: 20-22 d. The protocol:
as §1, §2, §3, §4, §5, §6, §7, §8, §9, §10

In test [9] the test system is kochia (Kochia scoparia L; KCHSC). Kind of test: Postemergence herbicidal activity, greenhouse, visual injury: kochia. The following applies: 20-22 d. Here is the method:
as §1, §2, §3, §4, §5, §6, §7, §8, §9, §10

Where [10] appears, read: herbicide alone 140 g/ha, 20-22 d.
Where [11] appears, read: herbicide alone 8.75 g/ha, 20-22 d.
Where [12] appears, read: safener alone 140 g ae/ha, 20-22 d.

As for `COc1c(Cl)ccc(-c2nc(N)c(Cl)c(C(=O)O)n2)c1F` [Compound 1, 6-amino-5-chloro-2-(4-chloro-2-fluoro-3-methoxyphenyl)pyrimidine-4-carboxylic acid], the results for the “TRZDU Ob (visual injury)” value in test [1] (herbicide alone 70 g/ha) and in [1] (herbicide alone 140 g/ha) were 15% and 35%, respectively. Besides, the results for the “HORVW Ob (visual injury)” value in test [2] (herbicide alone 70 g/ha) and in [2] (herbicide alone 140 g/ha) were 15% and 40%, respectively. The results for the pest or weed control at 70 g/ha in test [3] (20-22 d), in [4] (20-22 d) and in test [5] (20-22 d) were 25%, 95% and 15%, respectively. The pest or weed control at 140 g/ha in test [3] (setting [10]) amounted to 45%; in test [4] (setting [10]), 99%; in test [5] (setting [10]), 30%. In addition, the “GALAP Ob (visual injury)” value with GALAP (herbicide alone 70 g/ha) and in the test on GALAP (herbicide alone 140 g/ha) was 95% each time. Also, the “AMARE Ob (visual injury)” value in the test on AMARE (herbicide alone 70 g/ha) and with AMARE (herbicide alone 140 g/ha) was 100% in each case. For the same compound, the “TRZAW Ob (visual injury)” value was found to be 35% in test [6] (herbicide alone 70 g/ha) and 40% in [6] (herbicide alone 140 g/ha).

Regarding `COc1c(N)nc(-c2ccc(C(F)(F)F)cc2)nc1C(=O)O` [Compound 3, 6-amino-2-(4-trifluoromethylphenyl)-5-methoxypyrimidine-4-carboxylic acid], the “TRZDU Ob (visual injury)” value in test [1] (herbicide alone 8.75 g/ha) was determined as 7%. In addition, the “HORVW Ob (visual injury)” value in test [2] (herbicide alone 8.75 g/ha) worked out at 8%. The pest or weed control at 8.75 g/ha in test [3] (setting [11]) came to 15%; in test [5] (setting [11]) it was 13%. The pest or weed control at 35 g/ha in test [3] (20-22 d) was 75%; in test [5] (20-22 d), 50%. In addition, the “CHEAL Ob (visual injury)” value in test [7] (herbicide alone 35 g ae/ha) was determined as 10%. Further, in test [6] (herbicide alone 8.75 g/ha), the “TRZAW Ob (visual injury)” value is listed as 17%.

As to `COc1c(N)nc(-c2ccc(C)cc2)nc1C(=O)O` [Compound 6, 6-amino-2-p-tolyl-5-methoxypyrimidine-4-carboxylic acid], the “PAPRH Ob (visual injury)” value in test [8] (herbicide alone 70 g/ha) worked out at 97%; in test [8] (herbicide alone 140 g/ha), 100%. In addition, the results for the pest or weed control at 35 g/ha in [3] (20-22 d) and in test [5] (20-22 d) were 35% and 25%, respectively. In addition, the pest or weed control at 70 g/ha in test [3] (20-22 d) is 20%; in test [4] (20-22 d), 75%; in test [5] (20-22 d), 20%. The pest or weed control at 140 g/ha in [3] (setting [10]) amounted to 55%; in test [4] (setting [10]), 80%; in [5] (setting [10]) it was 40%. Also, the “CHEAL Ob (visual injury)” value in [7] (herbicide alone 35 g ae/ha) was 83%. For the same compound, the “KCHSC Ob (visual injury)” value was 60% in [9] (herbicide alone 70 g/ha) and 70% in test [9] (herbicide alone 140 g/ha).

On to `CCOC(=O)c1nc(C(Cl)(Cl)Cl)n(-c2ccc(Cl)cc2Cl)n1` [Fenchlorazole-ethyl, fenchlorazole-ethyl, reference compound], for which the pest or weed control at 140 g/ha in [3] (setting [12]), in test [4] (setting [12]) and in [5] (setting [12]) was 0% each time. Also, in test [7] (safener alone 140 g ae/ha), the “CHEAL Ob (visual injury)” value is given as 0%.

Take `CCOC(=O)C1=NN(c2ccc(Cl)cc2Cl)C(C)(C(=O)OCC)C1` (stereo not drawn) [Mefenpyr-diethyl, mefenpyr-diethyl, reference compound]: the pest or weed control at 140 g/ha in [3], in test [4] and in test [5] was 0% throughout. The “CHEAL Ob (visual injury)” value in test [7] (safener alone 140 g ae/ha) amounted to 0%.
